Source: ChEMBL document CHEMBL4507259 (2021)

Columns and labels:
[1] = target: Mitogen-activated protein kinase 7 (Homo sapiens) (UniProt Q13164); conditions: Compound concentration 1000.0 nM
[2] = target: Serine/threonine-protein kinase LATS2 (Homo sapiens) (UniProt Q9NRM7); conditions: Compound concentration 1000.0 nM
[3] = target: Non-receptor tyrosine-protein kinase TNK1 (Homo sapiens) (UniProt Q13470); conditions: Compound concentration 1000.0 nM
[4] = target: Activin receptor type-1 (Homo sapiens) (UniProt Q04771); conditions: Compound concentration 1000.0 nM
[5] = target: Homeodomain-interacting protein kinase 1 (Homo sapiens) (UniProt Q86Z02); conditions: Compound concentration 1000.0 nM
[6] = target: Serine/threonine-protein kinase D3 (Homo sapiens) (UniProt O94806); conditions: Compound concentration 1000.0 nM
Sequence of Serine/threonine-protein kinase D3 (Homo sapiens) (O94806 whole entry): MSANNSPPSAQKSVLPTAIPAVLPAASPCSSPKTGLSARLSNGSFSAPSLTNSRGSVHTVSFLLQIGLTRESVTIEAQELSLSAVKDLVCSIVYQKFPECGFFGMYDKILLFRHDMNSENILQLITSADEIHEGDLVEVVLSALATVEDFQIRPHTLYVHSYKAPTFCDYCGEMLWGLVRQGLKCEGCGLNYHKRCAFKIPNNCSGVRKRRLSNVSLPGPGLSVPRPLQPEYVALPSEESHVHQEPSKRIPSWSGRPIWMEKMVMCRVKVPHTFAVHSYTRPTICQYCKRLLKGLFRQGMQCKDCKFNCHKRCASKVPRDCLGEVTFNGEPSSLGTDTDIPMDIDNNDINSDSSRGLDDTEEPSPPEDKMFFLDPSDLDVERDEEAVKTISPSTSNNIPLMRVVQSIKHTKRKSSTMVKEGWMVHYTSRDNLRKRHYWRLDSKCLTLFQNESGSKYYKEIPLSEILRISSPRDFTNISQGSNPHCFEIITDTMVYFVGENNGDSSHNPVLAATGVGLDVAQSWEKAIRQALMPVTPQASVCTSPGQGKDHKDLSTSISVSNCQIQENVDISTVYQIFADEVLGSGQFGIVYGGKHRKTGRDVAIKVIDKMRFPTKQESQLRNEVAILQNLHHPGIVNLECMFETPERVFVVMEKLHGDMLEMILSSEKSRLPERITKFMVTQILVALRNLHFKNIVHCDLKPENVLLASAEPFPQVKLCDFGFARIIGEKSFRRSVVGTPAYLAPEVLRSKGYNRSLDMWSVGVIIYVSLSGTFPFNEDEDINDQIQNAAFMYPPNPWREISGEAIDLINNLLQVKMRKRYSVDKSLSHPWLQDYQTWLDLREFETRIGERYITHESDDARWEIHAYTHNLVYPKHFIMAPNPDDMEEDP

[7] = target: T1, Muscarinic acetylcholine receptor M2 (Homo sapiens) (UniProt P08172); assay: M2 (h) CEREP ligand profiling; conditions: filed as antagonist, Compound concentration 10.0 uM
T1 sequence (whole entry): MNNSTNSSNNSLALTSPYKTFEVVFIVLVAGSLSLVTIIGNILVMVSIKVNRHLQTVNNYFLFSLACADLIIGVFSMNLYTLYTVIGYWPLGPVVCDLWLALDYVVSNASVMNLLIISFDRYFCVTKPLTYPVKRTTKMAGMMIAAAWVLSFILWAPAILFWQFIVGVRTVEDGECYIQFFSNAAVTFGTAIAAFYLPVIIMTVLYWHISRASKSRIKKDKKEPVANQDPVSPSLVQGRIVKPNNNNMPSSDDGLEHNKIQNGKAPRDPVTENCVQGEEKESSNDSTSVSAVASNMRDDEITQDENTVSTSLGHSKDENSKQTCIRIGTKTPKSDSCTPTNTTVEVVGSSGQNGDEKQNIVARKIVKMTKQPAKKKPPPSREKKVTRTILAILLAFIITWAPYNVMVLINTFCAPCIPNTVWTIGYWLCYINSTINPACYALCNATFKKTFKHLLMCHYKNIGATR

[8] = target: Cyclin-dependent kinase-like 3 (Homo sapiens) (UniProt Q8IVW4); conditions: Compound concentration 1000.0 nM
[9] = tested on: Epidermal growth factor receptor (Homo sapiens), P00533 [L858R]; conditions: Compound concentration 1000.0 nM
[10] = target: Casein kinase I isoform epsilon (Homo sapiens) (UniProt P49674); conditions: Compound concentration 1000.0 nM
[11] = target: Tyrosine-protein kinase ITK/TSK (Homo sapiens) (UniProt Q08881); conditions: Compound concentration 1000.0 nM
[12] = target: 3-phosphoinositide-dependent protein kinase 1 (Homo sapiens) (UniProt O15530); conditions: Compound concentration 1000.0 nM
Sequence of 3-phosphoinositide-dependent protein kinase 1 (Homo sapiens) (O15530 whole entry): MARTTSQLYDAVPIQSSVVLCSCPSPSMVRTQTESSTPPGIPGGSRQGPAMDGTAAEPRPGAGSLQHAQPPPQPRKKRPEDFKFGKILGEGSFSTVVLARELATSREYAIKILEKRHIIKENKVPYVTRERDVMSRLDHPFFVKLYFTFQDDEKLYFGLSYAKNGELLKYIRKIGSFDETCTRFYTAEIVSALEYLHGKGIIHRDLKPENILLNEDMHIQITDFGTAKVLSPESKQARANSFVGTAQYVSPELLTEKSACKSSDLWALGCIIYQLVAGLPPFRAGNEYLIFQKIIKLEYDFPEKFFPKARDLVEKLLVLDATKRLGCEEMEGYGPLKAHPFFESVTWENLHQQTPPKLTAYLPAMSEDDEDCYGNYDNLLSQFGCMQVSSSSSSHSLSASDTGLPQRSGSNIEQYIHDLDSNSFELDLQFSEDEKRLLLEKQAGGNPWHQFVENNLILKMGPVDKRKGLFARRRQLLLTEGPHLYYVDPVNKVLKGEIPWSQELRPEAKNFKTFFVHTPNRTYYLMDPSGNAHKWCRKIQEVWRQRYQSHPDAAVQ

[13] = target: Serine/threonine-protein kinase/endoribonuclease IRE1 (Homo sapiens) (UniProt O75460); conditions: Compound concentration 1000.0 nM
Sequence of Serine/threonine-protein kinase/endoribonuclease IRE1 (Homo sapiens) (O75460 19-977 limits assumed): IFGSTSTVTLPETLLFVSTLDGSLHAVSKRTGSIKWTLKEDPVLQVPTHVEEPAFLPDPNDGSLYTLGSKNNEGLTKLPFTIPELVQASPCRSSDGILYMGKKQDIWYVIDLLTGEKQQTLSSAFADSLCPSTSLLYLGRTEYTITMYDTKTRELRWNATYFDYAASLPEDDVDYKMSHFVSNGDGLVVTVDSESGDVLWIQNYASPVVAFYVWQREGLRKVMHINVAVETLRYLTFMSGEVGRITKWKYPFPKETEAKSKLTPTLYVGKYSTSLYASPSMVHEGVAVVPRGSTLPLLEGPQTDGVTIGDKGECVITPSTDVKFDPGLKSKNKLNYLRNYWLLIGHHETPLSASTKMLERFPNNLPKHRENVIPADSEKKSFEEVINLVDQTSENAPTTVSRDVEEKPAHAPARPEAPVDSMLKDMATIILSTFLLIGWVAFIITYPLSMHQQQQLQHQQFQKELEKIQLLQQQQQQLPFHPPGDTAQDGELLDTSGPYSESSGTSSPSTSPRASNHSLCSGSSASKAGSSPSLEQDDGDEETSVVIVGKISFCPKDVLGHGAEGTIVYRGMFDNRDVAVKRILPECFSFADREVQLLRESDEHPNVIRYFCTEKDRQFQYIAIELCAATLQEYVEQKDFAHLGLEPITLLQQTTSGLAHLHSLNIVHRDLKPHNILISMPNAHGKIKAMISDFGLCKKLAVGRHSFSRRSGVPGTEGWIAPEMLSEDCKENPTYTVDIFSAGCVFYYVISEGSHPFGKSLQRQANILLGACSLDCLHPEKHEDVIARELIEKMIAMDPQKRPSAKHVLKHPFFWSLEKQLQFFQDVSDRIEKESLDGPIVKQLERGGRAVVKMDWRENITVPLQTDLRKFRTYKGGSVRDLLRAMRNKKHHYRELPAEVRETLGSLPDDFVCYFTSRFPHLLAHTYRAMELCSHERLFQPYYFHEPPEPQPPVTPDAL

[14] = target: Serine/threonine-protein kinase SBK1 (Homo sapiens) (UniProt Q52WX2); conditions: Compound concentration 1000.0 nM
Sequence of Serine/threonine-protein kinase SBK1 (Homo sapiens) (Q52WX2 whole entry): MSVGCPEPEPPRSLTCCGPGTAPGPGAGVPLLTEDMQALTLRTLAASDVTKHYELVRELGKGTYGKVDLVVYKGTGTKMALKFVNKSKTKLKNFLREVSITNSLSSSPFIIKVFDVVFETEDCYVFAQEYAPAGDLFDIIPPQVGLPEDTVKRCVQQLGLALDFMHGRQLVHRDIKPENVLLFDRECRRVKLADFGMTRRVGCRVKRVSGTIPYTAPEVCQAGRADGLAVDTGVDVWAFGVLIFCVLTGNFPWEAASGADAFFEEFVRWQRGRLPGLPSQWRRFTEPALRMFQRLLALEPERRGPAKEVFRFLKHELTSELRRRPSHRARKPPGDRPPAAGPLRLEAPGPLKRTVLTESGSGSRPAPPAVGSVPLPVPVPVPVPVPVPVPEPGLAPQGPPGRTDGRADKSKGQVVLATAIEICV

[15] = target: Serine/threonine-protein kinase TNNI3K (Homo sapiens) (UniProt Q59H18); conditions: Compound concentration 1000.0 nM
Sequence of Serine/threonine-protein kinase TNNI3K (Homo sapiens) (Q59H18 whole entry): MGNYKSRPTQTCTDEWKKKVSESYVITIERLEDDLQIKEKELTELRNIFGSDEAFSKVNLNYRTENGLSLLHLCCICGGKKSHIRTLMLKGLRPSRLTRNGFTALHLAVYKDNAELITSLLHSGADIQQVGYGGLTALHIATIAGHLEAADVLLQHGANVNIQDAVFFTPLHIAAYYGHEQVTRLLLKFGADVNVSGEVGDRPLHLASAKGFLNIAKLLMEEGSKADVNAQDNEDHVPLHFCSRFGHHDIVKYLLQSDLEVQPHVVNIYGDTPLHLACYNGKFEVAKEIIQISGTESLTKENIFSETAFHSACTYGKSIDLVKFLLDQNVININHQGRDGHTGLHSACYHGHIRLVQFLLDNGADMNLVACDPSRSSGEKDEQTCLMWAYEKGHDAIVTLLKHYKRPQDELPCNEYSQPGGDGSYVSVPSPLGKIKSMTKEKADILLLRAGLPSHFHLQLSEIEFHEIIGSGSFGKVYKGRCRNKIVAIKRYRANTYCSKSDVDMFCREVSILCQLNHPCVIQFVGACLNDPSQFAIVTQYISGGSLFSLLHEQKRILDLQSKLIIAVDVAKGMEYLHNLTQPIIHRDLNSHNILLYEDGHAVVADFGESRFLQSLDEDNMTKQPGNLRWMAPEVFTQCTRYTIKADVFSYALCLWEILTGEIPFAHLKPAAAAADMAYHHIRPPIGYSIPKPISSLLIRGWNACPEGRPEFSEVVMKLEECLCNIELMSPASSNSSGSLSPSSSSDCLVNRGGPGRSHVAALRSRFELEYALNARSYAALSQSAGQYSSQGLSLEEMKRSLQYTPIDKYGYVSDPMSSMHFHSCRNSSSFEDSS

[16] = target: Transient receptor potential cation channel subfamily M member 6 (Homo sapiens) (UniProt Q9BX84); conditions: Compound concentration 1000.0 nM
[17] = target: Histone acetyltransferase KAT2B (Homo sapiens) (UniProt Q92831); assay: PCAF (HAT) CEREP ligand profiling; conditions: Compound concentration 10.0 uM
Malme-3M = assay: Malme3M cell line Proliferation assay; assay type: functional, Homo sapiens; conditions: Compound concentration 10 uM; time 5 day
Rec1 = assay: REC1 cell line Proliferation assay; assay type: functional, Homo sapiens; conditions: Compound concentration 10 uM; time 3 day
DOHH-2 = assay: DoHH2 cell line Proliferation assay; assay type: functional, Homo sapiens; conditions: Compound concentration 10 uM; time 3 day
[18] = target: Histone acetyltransferase KAT5 (Homo sapiens) (UniProt Q92993); assay: TIP60 (HAT) CEREP ligand profiling; conditions: Compound concentration 10.0 uM
HCC1599 = assay: HCC1599 cell line Proliferation assay; assay type: functional, Homo sapiens; conditions: Compound concentration 10 uM; time 5 day
DB = assay: DB cell line Proliferation assay; assay type: functional, Homo sapiens; conditions: Compound concentration 10 uM; time 3 day
Calu-6 = assay: Calu 6 cell line Proliferation assay; assay type: functional, Homo sapiens; conditions: Compound concentration 10 uM; time 3 day
SET-2 = assay: SET-2 cell line Proliferation assay; assay type: functional, Homo sapiens; conditions: Compound concentration 10 uM; time 3 day
KARPAS-299 = assay: KARPAS-299 cell line Proliferation assay; assay type: functional, Homo sapiens; conditions: Compound concentration 10 uM; time 3 day
SK-MEL-5 = assay: SKMEL5 cell line Proliferation assay; assay type: functional, Homo sapiens; conditions: Compound concentration 10 uM; time 5 day
[19] = target: Histone acetyltransferase KAT6B (Homo sapiens) (UniProt Q8WYB5); assay: MYST4 (HAT) CEREP ligand profiling; conditions: Compound concentration 10.0 uM
NCI-H1048 = assay: H1048 cell line Proliferation assay; assay type: functional, Homo sapiens; conditions: Compound concentration 10 uM; time 4 day
OCI-Ly3 = assay: OCI Ly3 cell line Proliferation assay; assay type: functional, Homo sapiens; conditions: Compound concentration 10 uM; time 3 day
SC1 = assay: Sc1 cell line Proliferation assay; assay type: functional, Homo sapiens; conditions: Compound concentration 10 uM; time 3 day
OCI-Ly18 = assay: OCI Ly18 cell line Proliferation assay; assay type: functional, Homo sapiens; conditions: Compound concentration 10 uM; time 3 day
NCI-H661 = assay: H661 cell line Proliferation assay; assay type: functional, Homo sapiens; conditions: Compound concentration 10 uM; time 3 day
Mino = assay: Mino cell line Proliferation assay; assay type: functional, Homo sapiens; conditions: Compound concentration 10 uM; time 3 day
[20] = target: T2, 5-hydroxytryptamine receptor 3A (Homo sapiens) (UniProt P46098); conditions: Compound concentration 10.0 uM
T2 sequence (whole entry): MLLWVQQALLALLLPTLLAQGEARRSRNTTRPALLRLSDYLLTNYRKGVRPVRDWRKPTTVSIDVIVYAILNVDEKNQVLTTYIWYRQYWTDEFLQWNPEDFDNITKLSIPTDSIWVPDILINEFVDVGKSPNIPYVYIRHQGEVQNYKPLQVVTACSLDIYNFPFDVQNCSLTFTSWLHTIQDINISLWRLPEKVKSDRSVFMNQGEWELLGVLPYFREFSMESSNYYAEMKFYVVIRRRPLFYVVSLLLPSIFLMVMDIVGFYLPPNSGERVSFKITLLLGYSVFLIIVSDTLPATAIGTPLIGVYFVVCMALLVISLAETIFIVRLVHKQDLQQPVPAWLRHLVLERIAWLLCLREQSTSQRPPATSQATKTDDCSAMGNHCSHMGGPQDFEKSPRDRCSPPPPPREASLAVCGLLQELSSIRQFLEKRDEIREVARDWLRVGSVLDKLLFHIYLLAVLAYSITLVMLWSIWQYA

HCC2935 = assay: HCC2935 cell line Proliferation assay; assay type: functional, Homo sapiens; conditions: Compound concentration 10 uM; time 3 day
U-937 = assay: U937 cell line Proliferation assay; assay type: functional, Homo sapiens; conditions: Compound concentration 10 uM; time 3 day
MDA-MB-468 = assay: MDA_MB_468 cell line Proliferation assay; assay type: functional, Homo sapiens; conditions: Compound concentration 10 uM; time 5 day
CAL-120 = assay: CAL_120 cell line Proliferation assay; assay type: functional, Homo sapiens; conditions: Compound concentration 10 uM; time 5 day
OCI-AML-5 = assay: OCI-AML5 cell line Proliferation assay; assay type: functional, Homo sapiens; conditions: Compound concentration 10 uM; time 3 day
Pfeiffer = assay: Pfeiffer cell line Proliferation assay; assay type: functional, Homo sapiens; conditions: Compound concentration 10 uM; time 3 day
CA46 = assay: CA46 cell line Proliferation assay; assay type: functional, Homo sapiens; conditions: Compound concentration 10 uM; time 3 day
HL-60 = assay: HL-60 cell line Proliferation assay; assay type: functional, Homo sapiens; conditions: Compound concentration 10 uM; time 3 day

Sequence of Serine/threonine-protein kinase LATS2 (Homo sapiens) (Q9NRM7 whole entry): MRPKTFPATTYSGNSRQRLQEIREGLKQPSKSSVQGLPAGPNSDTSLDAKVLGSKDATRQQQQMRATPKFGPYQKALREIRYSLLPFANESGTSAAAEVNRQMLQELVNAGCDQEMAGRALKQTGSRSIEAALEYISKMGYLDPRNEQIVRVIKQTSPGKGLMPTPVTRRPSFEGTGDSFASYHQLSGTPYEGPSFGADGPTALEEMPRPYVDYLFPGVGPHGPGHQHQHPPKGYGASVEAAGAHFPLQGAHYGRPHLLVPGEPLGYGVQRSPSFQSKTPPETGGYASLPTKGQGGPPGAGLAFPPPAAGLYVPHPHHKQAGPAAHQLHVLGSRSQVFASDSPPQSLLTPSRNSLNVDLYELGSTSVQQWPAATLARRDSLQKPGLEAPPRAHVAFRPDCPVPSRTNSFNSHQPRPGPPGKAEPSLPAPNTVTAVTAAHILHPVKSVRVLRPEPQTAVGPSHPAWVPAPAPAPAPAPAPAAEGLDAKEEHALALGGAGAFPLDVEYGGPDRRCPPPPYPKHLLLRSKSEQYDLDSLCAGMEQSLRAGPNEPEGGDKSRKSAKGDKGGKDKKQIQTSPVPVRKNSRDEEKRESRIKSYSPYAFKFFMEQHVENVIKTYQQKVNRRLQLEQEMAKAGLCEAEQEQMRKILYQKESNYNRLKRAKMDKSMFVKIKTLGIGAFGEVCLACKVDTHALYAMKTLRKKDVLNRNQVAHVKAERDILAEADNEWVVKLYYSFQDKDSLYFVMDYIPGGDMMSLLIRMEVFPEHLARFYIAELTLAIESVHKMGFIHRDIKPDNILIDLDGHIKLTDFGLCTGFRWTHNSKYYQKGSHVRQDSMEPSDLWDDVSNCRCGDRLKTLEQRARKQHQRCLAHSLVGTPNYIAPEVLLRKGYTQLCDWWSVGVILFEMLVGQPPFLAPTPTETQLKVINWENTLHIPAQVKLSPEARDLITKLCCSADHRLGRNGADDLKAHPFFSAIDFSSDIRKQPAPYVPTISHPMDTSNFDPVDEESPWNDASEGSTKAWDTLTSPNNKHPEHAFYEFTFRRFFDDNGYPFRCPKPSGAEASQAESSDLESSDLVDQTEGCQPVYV

## CNC(=O)Nc1ccc2c(c1)[C@@]1(CC2)OC(=O)N(CC(=O)N(Cc2ccc(F)cc2)[C@@H](C)C(F)(F)F)C1=O [A-486]
[1]
  residual activity: 85%
[2]
  residual activity: 68%
[3]
  residual activity: 100%
[4]
  residual activity: 89%
[5]
  residual activity: 78%
[6]
  residual activity: 100%
[7]
  inhibition: -8%
[8]
  residual activity: 92%
[9]
  residual activity: 100%
[10]
  residual activity: 80%
[11]
  residual activity: 92%
[12]
  residual activity: 85%
[13]
  residual activity: 100%
[14]
  residual activity: 75%
[15]
  residual activity: 98%
[16]
  residual activity: 98%

## CNC(=O)Nc1ccc2c(c1)CC[C@@]21OC(=O)N(CC(=O)N(Cc2ccc(F)cc2)[C@@H](C)C(F)(F)F)C1=O [A-485]
[17]
  inhibition: 1%
Malme-3M
  Cell Proliferation EC50: 2.687 µM
[1]
  residual activity: 60%
Rec1
  Cell Proliferation EC50: >10 µM
DOHH-2
  Cell Proliferation EC50: 0.7512 µM
[2]
  residual activity: 47%
[3]
  residual activity: 86%
[18]
  inhibition: -1.9%
HCC1599
  Cell Proliferation EC50: 4.8529 µM
DB
  Cell Proliferation EC50: 0.7727 µM
Calu-6
  Cell Proliferation EC50: 8.573 µM
SET-2
  Cell Proliferation EC50: 2.01 µM
KARPAS-299
  Cell Proliferation EC50: >10 µM
SK-MEL-5
  Cell Proliferation EC50: 0.907 µM
[6]
  residual activity: 100%
[19]
  inhibition: 1.4%
NCI-H1048
  Cell Proliferation EC50: >10 µM
OCI-Ly3
  Cell Proliferation EC50: 0.4892 µM
SC1
  Cell Proliferation EC50: 1.689 µM
[7]
  inhibition: -5%
OCI-Ly18
  Cell Proliferation EC50: 0.3213 µM
NCI-H661
  Cell Proliferation EC50: 7.664 µM
Mino
  Cell Proliferation EC50: 0.5322 µM
[9]
  residual activity: 96%
[20]
  inhibition: -8.97%
HCC2935
  Cell Proliferation EC50: >10 µM
U-937
  Cell Proliferation EC50: >10 µM
[10]
  residual activity: 80%
[12]
  residual activity: 88%
MDA-MB-468
  Cell Proliferation EC50: 0.3767 µM
[13]
  residual activity: 56%
CAL-120
  Cell Proliferation EC50: >10 µM
OCI-AML-5
  Cell Proliferation EC50: 4.86 µM
Pfeiffer
  Cell Proliferation EC50: 0.8586 µM
[14]
  residual activity: 79%
CA46
  Cell Proliferation EC50: 0.4809 µM
HL-60
  Cell Proliferation EC50: >10 µM
[15]
  residual activity: 97%
[16]
  residual activity: 100%
